Results on five compounds are retold here after the NIST ThermoML archive (doi:10.1021/acs.jced.8b01146).

For this series the following is noted: 100 kPa, Liquid, Vibrating tube method.

Numbers after ± are expanded uncertainties.

For orientation: mass density means the mass of a sample divided by its volume. For the compound `CCC1CCC(=O)O1` (stereo not given) [2(3H)-furanone, 5-ethyldihydro-], the mass density came out at 1029.16 ± 0.54 kg/m3 (288.15 K); 1024.74 ± 0.54 kg/m3 (293.15 K); 1020.33 ± 0.53 kg/m3 (298.15 K); 1015.91 ± 0.53 kg/m3 (303.15 K); 1011.49 ± 0.53 kg/m3 (308.15 K); 1007.07 ± 0.53 kg/m3 (313.15 K). Further, the mass density is given as 1002.65 ± 0.53 kg/m3 (318.15 K) and 998.229 ± 0.53 kg/m3 (323.15 K).
For the compound `CC1CCCC(=O)O1` (stereo not given) [2H-pyran-2-one, tetrahydro-6-methyl-], the mass density by setting is: (288.15 K) 1053.81 ± 0.51 kg/m3; (293.15 K) 1049.47 ± 0.51 kg/m3; (298.15 K) 1045.14 ± 0.51 kg/m3; (303.15 K) 1040.81 ± 0.51 kg/m3; (308.15 K) 1036.48 ± 0.51 kg/m3; (313.15 K) 1032.15 ± 0.51 kg/m3. Further, the mass density was 1027.82 ± 0.51 kg/m3 (318.15 K) and 1023.51 ± 0.51 kg/m3 (323.15 K).
As to `CC1=CCC(=O)O1` [5-methylfuran-2(3H)-one], the mass density came out at 1099.32 ± 0.7 kg/m3 (288.15 K); 1093.94 ± 0.7 kg/m3 (293.15 K); 1088.55 ± 0.69 kg/m3 (298.15 K); 1083.16 ± 0.69 kg/m3 (303.15 K); 1077.77 ± 0.69 kg/m3 (308.15 K); 1072.38 ± 0.68 kg/m3 (313.15 K). For the same compound, the mass density runs as follows: (318.15 K) 1066.98 ± 0.68 kg/m3; (323.15 K) 1061.58 ± 0.67 kg/m3.
`O=C1CCCO1` [γ-butyrolactone]: the mass density (288.15 K) turned out to be 1134.26 ± 0.51 kg/m3; the mass density (293.15 K) was determined as 1129.35 ± 0.51 kg/m3; the mass density (298.15 K) worked out at 1124.44 ± 0.51 kg/m3; the mass density (303.15 K) was determined as 1119.53 ± 0.51 kg/m3; the mass density (308.15 K) was determined as 1114.61 ± 0.51 kg/m3; the mass density (313.15 K) was determined as 1109.69 ± 0.51 kg/m3. The mass density runs as follows: (318.15 K) 1104.77 ± 0.51 kg/m3; (323.15 K) 1099.86 ± 0.51 kg/m3.
With `CC1CCC(=O)O1` (stereo not given) [γ-valerolactone], the mass density runs as follows: (288.15 K) 1058.51 ± 0.51 kg/m3; (293.15 K) 1053.81 ± 0.51 kg/m3; (298.15 K) 1049.1 ± 0.51 kg/m3; (303.15 K) 1044.4 ± 0.51 kg/m3; (308.15 K) 1039.69 ± 0.51 kg/m3; (313.15 K) 1034.98 ± 0.51 kg/m3. Besides, the mass density runs as follows: (318.15 K) 1030.27 ± 0.51 kg/m3; (323.15 K) 1025.56 ± 0.51 kg/m3.
